# In patent publication US9856216B2, “Compounds as TNIK, IKKε and TBK1 inhibitors and pharmaceutical composition comprising same” (GREEN CROSS CORPORATION, priority 2015, dated 2018):
# Biological target: T1, TNIK (Homo sapiens, UniProt Q9UKE5)
# T1 construct: purchased Promega V4158
# Assay: ADP-Glo Kinase Assay, inhibition activity on TNIK
# Assay type: biochemical
# Conditions: not given
# Method: The inhibition activities on TNIK, IKKε and TBK1 were measured by a luminometer, TNIK/IKKε/TBK1 Kinase Enzyme System (Promega, Ca# V4158; Invitrogen, PR8031B, Promega, Ca# V3991) and ADP-Glo Kinase Assay using ADP-Glo™ Kinase Analysis Kit (Promega, Ca# V9101) and a kinase reaction buffer [40 mM Tris(pH 7.5), 20 mM MgCl2, 0.1 mg/mL BSA] in accordance with the manufacturer's protocol.
# T1 sequence (Q9UKE5 1-367 limits assumed): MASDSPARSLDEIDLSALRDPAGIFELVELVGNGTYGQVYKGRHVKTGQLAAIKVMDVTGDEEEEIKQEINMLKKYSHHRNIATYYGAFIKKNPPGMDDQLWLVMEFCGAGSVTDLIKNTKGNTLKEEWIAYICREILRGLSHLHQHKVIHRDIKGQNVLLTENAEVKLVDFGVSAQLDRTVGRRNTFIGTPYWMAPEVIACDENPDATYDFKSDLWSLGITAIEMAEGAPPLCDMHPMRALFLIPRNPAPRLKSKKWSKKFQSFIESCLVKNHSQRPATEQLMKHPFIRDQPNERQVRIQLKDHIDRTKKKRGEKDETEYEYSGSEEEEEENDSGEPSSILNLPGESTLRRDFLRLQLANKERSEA
row,TNIK (μM),SMILES
1,Insoluble,"O=C1NCc2c(-c3ccccc3)ccc(NCCN3C(=O)c4ccccc4C3=O)c21 [Example 257, 2-(2-((3-Oxo-7-phenylisoindolin-4-yl)amino)ethyl)isoindolin-1,3-dione]"
2,Insoluble,"O=C(Nc1ccc(-c2cc(Cl)ccc2Cl)c2c1C(=O)NC2)c1ccccc1 [Example 19, N-(7-(2,5-dichlorophenyl)-3-oxoisoindolin-4-yl)benzamide]"

# Same assay, conditions: read-out: TNIK
row,SMILES,IC50
1,"COCCCNc1ccc(C(=O)Nc2ccc(-c3ccccc3OC)c3c2C(=O)NC3)cc1 [Example 332, N-(7-(2-methoxyphenyl)-3-oxoisoindolin-4-yl)-4-((3-methoxypropyl)amino)benzamide]",510 nM
2,"O=C(Nc1ccc(-c2cscn2)c2c1C(=O)NC2)c1ccccc1 [Example 52, N-(3-oxo-7-(thiazol-4-yl)isoindolin-4-yl)benzamide]",2800 nM
3,"O=C(Nc1ccc(-c2ccco2)c2c1C(=O)NC2)c1ccc(NCCCN2CCCC2)cc1 [Example 339, N-(7-(furan-2-yl)-3-oxoisoindolin-4-yl)-4-((3-(pyrrolidin-1-yl)propyl)amino)benzamide]",310 nM
4,"O=C(Nc1ccc(-c2ccccc2)c2c1C(=O)NC2)NC1CCCCC1 [Example 231, 1-Cyclohexyl-3-(3-oxo-7-phenylisoindolin-4-yl)urea]",> 20000 nM
5,"CC(=O)c1ccc(NC(=O)Nc2ccc(-c3ccccc3)c3c2C(=O)NC3)cc1 [Example 237, 1-(4-Acetylphenyl)-3-(3-oxo-7-phenylisoindolin-4-yl)urea]",4900 nM
6,"O=C(Nc1ccc(-c2c[nH]cn2)c2c1C(=O)NC2)c1ccccc1 [Example 54, N-(7-(1H-imidazol-4-yl)-3-oxoisoindolin-4-yl)benzamide]",3820 nM
7,"Cc1cc(F)ccc1C(=O)Nc1ccc(-c2ccccc2)c2c1C(=O)NC2 [Example 137, 4-Fluoro-2-methyl-N-(3-oxo-7-phenylisoindolin-4-yl) benzamide]",> 20000 nM
8,"COc1ccccc1-c1ccc(NC(=O)c2ccc(NCCN(C)C)cc2)c2c1CNC2=O [Example 305, 4-((2-(Dimethylamino)ethyl)amino)-N-(7-(2-methoxyphenyl)-3-oxoisoindolin-4-yl)benzamide]",200 nM
9,"O=C(Nc1ccc(-c2ccccc2)c2c1C(=O)NC2)c1ccc(F)c(F)c1 [Example 92, 3,4-Difluoro-N-(3-oxo-7-phenylisoindolin-4-yl)benzamide]",> 20000 nM
10,"O=C(Nc1ccc(-c2cccs2)c2c1C(=O)NC2)c1ccccc1 [Example 125, N-(3-oxo-7-(thiophen-2-yl)isoindolin-4-yl)benzamide]",1400 nM
11,"CNC(=O)c1ccc(NC(=O)c2ccc(NCCN3CCCC3)cc2)c2c1CNC2=O [Example 390, N-methyl-1-oxo-7-(4-((2-(pyrrolidin-1-yl)ethyl)amino)benzamido)isoindoline-4-carboxamide]",3870 nM
12,"O=C(Nc1ccc(Nc2ccccc2)c2c1C(=O)NC2)c1ccccc1F [Example 420, 2-Fluoro-N-(3-oxo-7-(phenylamino)isoindolin-4-yl)benzamide]",790 nM
13,"Cc1nc2cccc(-c3ccc(NC(=O)c4ccc(NCCN5CCCC5)cc4)c4c3CNC4=O)c2o1 [Example 377, N-(7-(2-methylbenzo[d]oxazol-7-yl)-3-oxoisoindolin-4-yl)-4-((2-(pyrrolidin-1-yl)ethyl)amino)benzamide]",360 nM
14,"O=C(Nc1ccc(-c2ccco2)c2c1C(=O)NC2)c1ccccc1 [Example 126, N-(7-(furan-2-yl)-3-oxoisoindolin-4-yl)benzamide]",600 nM
15,"CC(C)(C)OC(=O)N1CCN(Cc2ccc(-c3ccc(NC(=O)c4ccccc4)c4c3CNC4=O)s2)CC1 [Example 198, tert-Butyl 4-((5-(7-benzamido-1-oxoisoindolin-4-yl)thiophen-2-yl)methyl)piperazine-1-carboxylate]",> 20000 nM
16,"Cc1ccc(C)c(-c2ccc(NC(=O)c3ccccc3)c3c2CNC3=O)c1 [Example 31, N-(7-(2,5-dimethylphenyl)-3-oxoisoindolin-4-yl)benzamide]",1600 nM
17,"COc1cccc(-c2ccc(NC(=O)c3ccc(NCCN4CCCCC4)cc3)c3c2CNC3=O)c1OC [Example 298, N-(7-(2,3-dimethoxyphenyl)-3-oxoisoindolin-4-yl)-4-((2-(piperidin-1-yl)ethyl)amino)benzamide]",78 nM
18,"COc1cccc(-c2ccc(NC(=O)c3ccc(F)cc3)c3c2CNC3=O)c1OC [Example 135, N-(7-(2,3-dimethoxyphenyl)-3-oxoisoindolin-4-yl)-4-fluoro benzamide]",140 nM
19,"COc1cccc(Nc2ccc(NC(=O)c3ccc(NCCN4CCCCC4)cc3)c3c2CNC3=O)c1 [Example 446, N-(7-((3-methoxyphenyl)amino)-3-oxoisoindolin-4-yl)-4-((2-(piperidin-1-yl)ethyl)amino)benzamide]",630 nM
20,"CC(C)c1cccc(-c2ccc(NC(=O)c3ccccc3)c3c2CNC3=O)c1 [Example 2, N-(7-(3-isopropylphenyl)-3-oxoisoindolin-4-yl)benzamide]",> 20000 nM

# Other lines, results leading:
row,IC50,SMILES
1,> 20000 nM,"O=C(Nc1ccc(-c2ccccc2)c2c1C(=O)NC2)c1cccc(Cl)c1 [Example 90, 3-Chloro-N-(3-oxo-7-phenylisoindolin-4-yl)benzamide]"
2,500 nM,"O=C(Nc1ccc(Nc2ccccc2F)c2c1C(=O)NC2)c1ccccc1 [Example 413, N-(7-((2-fluorophenyl)amino)-3-oxoisoindolin-4-yl)benzamide]"
3,14600 nM,"Cc1ccccc1C(=O)Nc1ccc(-c2ccccc2)c2c1C(=O)NC2 [Example 87, 2-Methyl-N-(3-oxo-7-phenylisoindolin-4-yl)benzamide]"
4,> 20000 nM,"CC(C)Oc1ccccc1-c1ccc(NC(=O)c2ccccc2)c2c1CNC2=O [Example 6, N-(7-(2-isopropoxyphenyl)-3-oxoisoindolin-4-yl)benzamide]"
5,3400 nM,"COc1ccc(C(=O)Nc2ccc(-c3ccccc3)c3c2C(=O)NC3)cc1 [Example 121, 4-Methoxy-N-(3-oxo-7-phenylisoindolin-4-yl)benzamide]"
6,2170 nM,"Cn1cc(-c2ccc(NC(=O)c3ccccc3)c3c2CNC3=O)cn1 [Example 57, N-(7-(1-methyl-1H-pyrazol-4-yl)-3-oxoisoindolin-4-yl) benzamide]"
7,1260 nM,"Cc1ccccc1Nc1ccc(NC(=O)c2ccc(F)cc2)c2c1CNC2=O [Example 426, 4-Fluoro-N-(3-oxo-7-(o-tolylamino)isoindolin-4-yl)benzamide]"
8,200 nM,"O=C(Nc1ccc(Nc2cccc(Cl)c2)c2c1C(=O)NC2)c1ccc(NCCN2CCCC2)cc1 [Example 455, N-(7-((3-chlorophenyl)amino)-3-oxoisoindolin-4-yl)-4-((2-(pyrrolidin-1-yl)ethyl)amino)benzamide]"
9,160 nM,"COc1ccccc1-c1ccc(NC(=O)c2ccc(NCCCN3CCCC3)cc2)c2c1CNC2=O [Example 302, N-(7-(2-methoxyphenyl)-3-oxoisoindolin-4-yl)-4-((3-(pyrrolidin-1-yl)propyl)amino)benzamide]"
10,700 nM,"O=C(Nc1ccc(-c2ccccc2)c2c1C(=O)NC2)c1ccncc1 [Example 211, N-(3-oxo-7-phenylisoindolin-4-yl)isonicotinamide]"
11,450 nM,"COc1ccccc1Nc1ccc(NC(=O)c2ccccc2)c2c1CNC2=O [Example 410, N-(7-((2-methoxyphenyl)amino)-3-oxoisoindolin-4-yl) benzamide]"
